Source: patent US20220184071A1, “GEPOTIDACIN FOR USE IN THE TREATMENT OF BACTERIAL URINARY TRACT INFECTIONS” (GlaxoSmithKline Intellectual Property Development Limited, priority 2019, published 2022)
Converted amounts (≈) assume the structure as drawn. Where two headings read alike, the source gives them in different places.

Tests used:
[1] = system: K. pneumoniae; assay: Phase IIa baseline uropathogen susceptibility testing (CLSI broth microdilution); assay type: cell-based, Klebsiella pneumoniae; details: Klebsiella pneumoniae; Participant 7; read-out: GEP MIC
Method: (§1) This phase IIa single center study evaluated the safety, tolerability, pharmacokinetics, and efficacy of oral gepotidacin 1500 mg BID for 5 days in female subjects with acute cystitis. Clean catch mid-stream urine specimens were obtained for quantitative culture by standard methods. Urine samples were taken from all participants pre-treatment (baseline) and at all post-baseline visits. All urine samples were sent to a central laboratory (PPD Global Clinical Laboratories, Highland Heights, Ky., USA) for Gram stain, quantitative culture, pathogen identification and susceptibility testing. See FIG. 1 for participant disposition and study outline.
(§2) Susceptibility testing by CLSI broth microdilution and gradient diffusion (fosfomycin only) was conducted (CLSI, 2015, Methods for dilution antimicrobial susceptibility tests for bacteria that grow aerobically; approved standard-tenth edition; and CLSI, 2018. Performance Standards for Antimicrobial Susceptibility Testing; Twenty-seventh Informational Supplement M100-S28). Inclusion in the microbiological intent-to-treat population (micro-ITT), required growth of a qualifying baseline uropathogen (≥10^5 CFU/mL). See FIG. 2 for the baseline algorithm.

[2] = system: S. lugdenensis, S. agalactiae, Streptococcus group G and Streptococcus group F; assay: MIC by CLSI broth microdilution, Example 5 second study; assay type: cell-based; details: at least one strain of every organism listed
Description: A second study tested gepotidacin by CLSI broth microdilution against bacterial isolates collected from patients with acute bacterial skin and soft tissue infections between 2013-2014.
Amoxicillin/clavulanic acid, linezolid, fusidic acid, ceftriaxone, ceftaroline, vancomycin, penicillin, quinupristin/dalfopristin, erythromycin, clindamycin, meropenem, tetracycline, chloramphenicol, flucloxacillin, telavancin, daptomycin, trimethoprim/sulfamethoxazole, gentamicin, levofloxacin, tigecycline and cefuroxime were included as comparators. MICs were determined by broth microdilution according to CLSI methods.
In addition, MICs were determined by broth microdilution according CLSI methods and all the comparators from the list above were evaluated against gram-positive aerobe organisms selected from S. lugdenensis, S. agalactiae, Streptococcus group G and Streptococcus group F.

[3] = system: Staphylococcus epidermidis; assay: MIC by CLSI broth microdilution in CAMHB and urine, Example 5 Method 2; assay type: cell-based; details: for Mean MIC: n = 4; for MIC: Staphylococcus epidermidis
Method: The compounds were tested in serial two-fold dilutions and the minimum inhibitory concentration (MIC) was determined as the lowest concentration of the compound that inhibited visible growth.
In particular, gepotidacin was tested against 4 strains of Staphylococcus epidermidis from the collection of isolates at Laboratory Specialists, Inc., Westlake, Ohio.
Levofloxacin was included as the comparator in the study to determine the effect of urine on the in vitro activity of gepotidacin against Staphylococcus epidermidis. MICs were determined by broth microdilution according CLSI methods.
The data shown in the table below are results from an in vitro study conducted with the same S. epidermidis isolates described above, to determine the effect of urine on the in vitro activity of gepotidacin and levofloxacin against S. epidermidis. Study strains were tested for MICs according to reference CLSI broth microdilution method using cation-adjusted Mueller Hinton Broth (CAMHB) and with the addition of 25%, 50% and 100% urine (not pH adjusted, pH 6.42) and 100% urine (pH adjusted, 7.31 and 8.07).

[4] = Saliva exposure, healthy volunteers; assay type: in vivo, human; details: 1500 mg oral single dose
Method: Antibiotic target site exposures play a key role as suboptimal levels may lead to therapeutic failure and resistance. Across multiple clinical studies, exposures to gepotidacin were assessed in plasma and other matrices, such as urine, saliva, epithelial lining fluid (ELF) and Alveolar Macrophages (AM).
Bronchoalveolar lavage samples were collected to determine gepotidacin exposures in ELF and AM following a single 1000 mg IV infusion over 2 hours to healthy subjects. Saliva exposure was assessed in healthy volunteers following 1500 mg oral single dose. Gepotidacin exposures in urine was assessed in women with acute uUTI following 1500 mg BID oral doses for 5 days.

[5] = system: E. coli; assay: Phase IIa baseline uropathogen susceptibility testing (CLSI broth microdilution); assay type: cell-based, Escherichia coli; details: Escherichia coli, read-out: GEP MIC
Method: as §1, §2

For O=c1ccc2ncc(=O)n3c2n1C[C@H]3CN1CCC(NCc2cc3c(cn2)OCCC3)CC1 [gepotidacin, (2R)-2-({4-[(3,4-dihydro-2H-pyrano[2,3-c]pyridin-6-ylmethyl)amino]-1-piperidinyl}methyl)-1,2-dihydro-3H,8H-2a,5,8a-triazaacenaphthylene-3,8-dione], the MIC [1] was 4 µg/mL (≈ 8.92 µM), the MIC [2] was ≤ 2 µg/mL and the MIC range ([3]; 2 isolates of methicillin-resistant S. epidermidis) was 0.25 to 0.5 µg/mL. The “Mean Dilution Difference” value ([3]; 25% Urine (pH 7.09) vs CAMHB) was −0.75, the Mean difference ([3]; 25% Urine (pH 7.09) vs CAMHB) was −0.17 and the “N(%) ± 1 dilution” value ([3]; 25% Urine (pH 7.09) vs CAMHB) was 4 (100%). For the same compound, the “N(%) ± 2 dilution” value ([3]; 25% Urine (pH 7.09) vs CAMHB) was 4 (100%), the Mean MIC ([3]; 25% Urine (pH 7.09)) was 0.25 µg/mL and the “Mean Dilution Difference” value ([3]; 50% Urine (6.99) vs CAMHB) was −1.01. The Mean difference ([3]; 50% Urine (6.99) vs CAMHB) was −0.21, the “N(%) ± 1 dilution” value ([3]; 50% Urine (6.99) vs CAMHB) was 4 (100%) and the “N(%) ± 2 dilution” value ([3]; 50% Urine (6.99) vs CAMHB) was 4 (100%). For the same compound, the Mean MIC ([3]; 50% Urine (6.99)) was 0.21 µg/mL, the “Mean Dilution Difference” value ([3]; 100% Urine (pH 6.42) vs CAMHB) was −0.26 and the Mean difference ([3]; 100% Urine (pH 6.42) vs CAMHB) was −0.07. The “N(%) ± 1 dilution” value ([3]; 100% Urine (pH 6.42) vs CAMHB) was 4 (100%), the “N(%) ± 2 dilution” value ([3]; 100% Urine (pH 6.42) vs CAMHB) was 4 (100%) and the Mean MIC ([3]; 100% Urine (pH 6.42)) was 0.35 µg/mL. The “Mean Dilution Difference” value ([3]; 100% Urine (pH 7.31) vs CAMHB) was 0.25, the Mean difference ([3]; 100% Urine (pH 7.31) vs CAMHB) was 0.08 and the “N(%) ± 1 dilution” value ([3]; 100% Urine (pH 7.31) vs CAMHB) was 4 (100%). For the same compound, the “N(%) ± 2 dilution” value ([3]; 100% Urine (pH 7.31) vs CAMHB) was 4 (100%), the Mean MIC ([3]; 100% Urine (pH 7.31)) was 0.5 µg/mL and the “Mean Dilution Difference” value ([3]; 100% Urine (pH 8.07) vs CAMHB) was 0.00. The Mean difference ([3]; 100% Urine (pH 8.07) vs CAMHB) was 0.00, the “N(%) ± 1 dilution” value ([3]; 100% Urine (pH 8.07) vs CAMHB) was 4 (100%) and the “N(%) ± 2 dilution” value ([3]; 100% Urine (pH 8.07) vs CAMHB) was 4 (100%). For the same compound, the Mean MIC ([3]; 100% Urine (pH 8.07)) was 0.42 µg/mL, the “mean dilution differences (range)” value ([3]; 100% urine (conclusion)) was 0 to −0.26 and the Mean MIC ([3]; CAMHB (ref. method, pH 7.2)) was 0.42 µg/mL. The MIC ([3]; 2 isolates of methicillin-susceptible S. epidermidis, read-out: MIC) was 0.5 µg/mL (≈ 1.11 µM), the MIC ([3]; at least one strain of methicillin-susceptible or methicillin-resistant S. epidermidis, read-out: MIC) was ≤ 0.5 µg/mL and the MIC ([3]; read-out: MICs, methicillin-susceptible and methicillin-resistant isolates tested (conclusion), heading: MICs) was < 0.5 µg/mL. The “mean dilution differences (range)” value ([3]; addition of urine vs CAMHB) was 0 to −1.01, the “MIC fold greater than the levofloxacin MIC” value ([3]; each of the methicillin-resistant S. epidermidis) was 4 fold and the “MIC fold greater than the levofloxacin MIC” value ([3]; methicillin-susceptible S. epidermidis) was 2 fold. The “ratio of saliva AUC to unbound plasma AUC” value [4] was “close to unity”, the MIC ([5]; Participant 2) was 2 µg/mL (≈ 4.46 µM) and the MIC ([5]; Participant 3) was 0.5 µg/mL (≈ 1.11 µM). It also gave an MIC ([5]; Participant 4) of 2 µg/mL (≈ 4.46 µM), an MIC ([5]; Participant 5, MDR and fluoroquinolone-resistant) of 1 µg/mL (≈ 2.23 µM) and an MIC ([5]; Participant 6, MDR) of 2 µg/mL (≈ 4.46 µM).
